Entries after “also recorded” stand apart in the source; their conditions may differ.
Assays:
Assay type in all cases: in vivo, Wister rats
[1] = test system: nephritis model rat; experiment: Effects of orniplabin administration on plasma components in nephritis model rat
Method: (§1) 0.6 mL of Anti-rat-glomerular basement membrance rabbit serum was administered into the caudal vein. Next day rabbit γ-globulin (Sigma), and 8 mg/0.2 mL Freund's complete adjuvant (Wako Junyaku) were subcutaneously injected into hinder leg's footpad to cause nephritis (nephritis model rat).
(§2) The urinary proteins were measured three days after the injection of anti-serum and the rats were grouped according to the measurement values. An orniplabin solution equivalent to 5 mg/Kg concentration was intrapenitoneally injected everyday to the orniplabin administration group since then. Nothing was injected to the control group. Rats of respective groups were dissected to remove blood, liver and kidneys 14 days after nephritis was induced, and weights of the removed materials were measured. Further lipid peroxides of a part of blood obtained were measured using a commercial measurement kit (Wako Junyaku). The normal group represents the untreated group, the control group represents—the nephritis-induced group and SMTP group represents the orniplabin-injected group. Student's t-test of significant difference between two groups was carried out as the level significance is 0.05. Tukey's multiple comparison method was used for the testing of significance between three groups. The data associated with the amount of urinary proteins and the weight of organs are treated with the scale per 100 g of body weight as a benchmark.
Further effects of orniplabin administration on plasma components were investigated by measuring a variety of concentrations of plasma component, (Normal group, n=6; control group, n=10; and orniplabin-injected group, n=6) The following plasma components were measured; lactate dehydrogenase (LD; PureAuto S LD), […] amino transferase (AST AutoSera S AST), alanine aminotransferase (ALT: AutoSera S ALT), creatine phosphate kinase (CPK; PureAuto S CK), alkaline phosphatase (ALP; AutoSera S ALP), γ-glutamyl transpeptidase (γ-GTP; PureAuto S γ-GT), total bilirubin (BIL: AutoSera BIL-2), glucose (GLU; PureAuto S GLU-R), triglyceride (TG; AutoSera S TG-N), total cholesterol (T-CHO; Choletest CHO), phospholipid (PL; PureAuto S PL), total protein (TP; AutoSera TP), urea nitrogen (UN; PureAuto S UN), albumin (ALB; AutoSera ALB), calcium (CA; AutoSera CA), inorganic phosphoric acid (IP; Clini mate IP-2), (Daiichi Chemical), creatinine (CRE-S; AccursAuto CRE, Sinotest), acetoacetic acid (ACAC; Ketone Test A Sanwa liquid, Sanwa Science Laboratories), 3-hydroxy butyric acid (OHBA; Ketone Test B Sanwa liquidA Sanwa Science Laboratories), free fafty acids (NEFA; AutoSera R NEFA (Daiichi Chemical) and HDL cholesterol (HDL; Cholest-R N HDL (Daichi Chemical) were used to measure. Further Hitachi Amino acid automatic analyzer 7180 (Hitachi) was used.
The comparison results between the control group and the orniplabin-injected group, and the normal group of which average value is as 1 are shown in FIG. 5 to FIG. 8.

[2] = test system: nephritis model rat; experiment: Effects of orniplabin on urinary protein, lipid peroxide in blood and organomegaly in nephritis model rat
Method: Three-week-old male Wister rats (Charles River) were raised for 6 days with pellet diet (CE-2, Nihon Crea) and then raised with the 20% casein diet for 5 days to be subjected to the experiment. The animals were raised at approximately 22° C., with relative humidity […] under lighting from 8:00 to 20:00.
as §1
Since anti-serum was injected, the body weight and feed intake were measured every morning and urinary proteins of 24-hour urine was measured every other day, specifically urine was collected in a flask from 9 AM of the day before to 9 AM of the day and the measurement was carried out using commercial protein measurement kit (Bio-Rad, Protein Assay, Bio-Rad). (Refer to Biosci. Biotechnol. Biochem., 65, 1155-1162 (2001))
as §2

[3] = test system: nephritis model rat; experiment: Observation of PAS-stained kidney histologic sections and nephritis score
Method: Section samples were prepared from three animals selected according to the variation of urinary protein in respective groups. Periodic acid Schiff (PAS) staining was conducted on the kidney histologic section.
A procedure for PAS staining was; slicing a sampler washing the sample with water after paraffin-removal, soaking the sample in a solution of 1% periodic acid for 10 minutes, and washing again the sample with water; soaking the histologic section prepared in Schiff reagent for 10 to 15 minutes, washing the sample in a staining bat three times for 3 minutes, total for 9 minutes, and washing the sample with water; and then staining the sample with hematoxylin for 1 minute, washing the sample with warm water for 10 minutes, dehydrating and penetrating the sample and then sealing the sample.
Observation of the histologic sample was conducted on renal glomerulus using a microscope with 200× magnifications. The bar in Figs is corresponding to 50 μm.
Fifty (50) glomeruli every three samples of each group were ranked according to damaged levels. The ranks were from normal (rank 1) to the most progressed damage (rank 5) and five grades according to damages were given to provide a score. The average of the scores was decided as the score of the sample (nephritis score).

[4] = decrease by induction of nephritis
[5] = orniplabin-injected group vs control group
[6] = 5 mg/Kg intraperitoneal everyday
[7] = 5 mg/Kg intraperitoneal everyday, 14 days after nephritis induction, weight per 100 g body weight
[8] = renal glomerulus, PAS staining, orniplabin-injected group

CC(C)=CCC/C(C)=C/CC[C@@]1(C)Oc2c(c(O)cc3c2CN(CCC[C@@H](C(=O)O)N2Cc4c(cc(O)c5c4O[C@](C)(CC/C=C(\C)CCC=C(C)C)[C@H](O)C5)C2=O)C3=O)C[C@H]1O [orniplabin]
concentration of BIL in plasma [1, 4]: prevented or these concentrations were recovered
concentration of CA in plasma [1, 4]: prevented or these concentrations were recovered
concentration of GLU in plasma [1, 4]: prevented or these concentrations were recovered
concentration of IP in plasma [1, 4]: prevented or these concentrations were recovered
concentration of TP (total proteins) in plasma ([1]; orniplabin-injected group): recovered to the normal level
concentration of ACAC in plasma [1, 5]: lower than that of the control group
concentration of ALB in plasma [1, 5]: almost not different
concentration of ALP in plasma [1, 5]: not significantly different
concentration of ALT in plasma [1, 5]: not significantly different
concentration of AST in plasma [1, 5]: not significantly different
concentration of CRE-S in plasma [1, 5]: almost not different
concentration of HDL in plasma [1, 5]: in decreasing trend
concentration of LD in plasma [1, 5]: not significantly different
concentration of OHBA in plasma [1, 5]: prevented or these concentrations were recovered; also recorded: higher than that of the control group
concentration of OK in plasma [1, 5]: not significantly different
concentration of PL in plasma [1, 5]: in decreasing trend
concentration of T-CHO in plasma [1, 5]: in decreasing trend
concentration of TG in plasma [1, 5]: significantly decreased
concentration of UN in plasma [1, 5]: almost not different
concentration of γ-GTP in plasma [1, 5]: not significantly different
food intake [2, 6]: without affecting
increase of body weight [2, 6]: without affecting
urinary proteins ([2]; 5 mg/Kg intraperitoneal everyday from day 3, 24-hour urine, vs control group): decreased
lipid peroxides in serum ([2]; 5 mg/Kg intraperitoneal everyday, 14 days after nephritis induction, vs control group): decreased
hypertrophy of kidneys [2, 7]: suppressed
hypertrophy of liver [2, 7]: suppressed
nephritis score ([3]; 50 glomeruli per sample, three samples, rank 1 (normal) to rank 5 (most progressed damage), control group 3.80±0.13): 2.77±0.04
abnormal histologic hypertrophy of proximal convoluted tubule tissue ([3]; PAS staining, orniplabin-injected group): not observed
crescent formation [3, 8]: low level crescent formation
mesangium proliferation [3, 8]: almost no mesangium proliferation
